Assay results published in patent publication US11725011B2, “Bicyclic urea kinase inhibitors and uses thereof” (The Broad Institute, Inc., priority 2016, dated 2023).

How the values were obtained:
CAMKK1 = CAMKK1 (Homo sapiens (Human), UniProt Q8N5S9); experiment: KINOMEscan; assay type: binding; conditions: 1 uM
TLK2 = TLK2 (Homo sapiens (Human), UniProt Q86UE8); experiment: KINOMEscan; assay type: binding; conditions: 1 uM
AMPK-alpha2 = AMPK-alpha2 (Homo sapiens (Human), UniProt P54646); experiment: KINOMEscan; assay type: binding; conditions: 1 uM
JNK2 = JNK2 (Homo sapiens (Human), UniProt P45984); experiment: KINOMEscan; assay type: binding; conditions: 1 uM
NDR2 = NDR2 (Homo sapiens (Human), UniProt Q9Y2H1); experiment: KINOMEscan; assay type: binding; conditions: 1 uM
PRKG1 = PRKG1 (Homo sapiens (Human), UniProt Q13976); experiment: KINOMEscan; assay type: binding; conditions: 1 uM
MEK6 = MEK6 (Homo sapiens (Human), UniProt P52564); experiment: KINOMEscan; assay type: binding; conditions: 1 uM
GSK3B = GSK3B (Homo sapiens (Human), UniProt P49841); experiment: KINOMEscan; assay type: binding; conditions: 1 uM
PRKCD = PRKCD (Homo sapiens (Human), UniProt Q05655); experiment: KINOMEscan; assay type: binding; conditions: 1 uM
FLT1 = FLT1 (Homo sapiens (Human), UniProt P17948); experiment: KINOMEscan; assay type: binding; conditions: 1 uM
CDK5 = CDK5 (Homo sapiens (Human), UniProt Q00535); experiment: KINOMEscan; assay type: binding; conditions: 1 uM
BRAF (V600E) = BRAF (V600E) (Homo sapiens (Human), UniProt P15056, V600E); experiment: KINOMEscan; assay type: binding; conditions: 1 uM
CDC2L1 = CDC2L1 (Homo sapiens (Human), UniProt P21127); experiment: KINOMEscan; assay type: binding; conditions: 1 uM
p38-delta = p38-delta (Homo sapiens (Human), UniProt O15264); experiment: KINOMEscan; assay type: binding; conditions: 1 uM
ERK8 = ERK8 (Homo sapiens (Human), UniProt Q8TD08); experiment: KINOMEscan; assay type: binding; conditions: 1 uM
SNARK = SNARK (Homo sapiens (Human), UniProt Q9H093); experiment: KINOMEscan; assay type: binding; conditions: 1 uM
LIMK1 = LIMK1 (Homo sapiens (Human), UniProt P53667); experiment: KINOMEscan; assay type: binding; conditions: 1 uM
p38-beta = p38-beta (Homo sapiens (Human), UniProt Q15759); experiment: KINOMEscan; assay type: binding; conditions: 1 uM
DMPK = DMPK (Homo sapiens (Human), UniProt Q09013); experiment: KINOMEscan; assay type: binding; conditions: 1 uM
[1] = biological target: ABL1 (M351T)-phosphorylated (Homo sapiens (Human), UniProt P00519, M351T); experiment: KINOMEscan; assay type: binding; conditions: 1 uM
[2] = biological target: RSK1 (Kin.Dom.2-C-terminal) (Homo sapiens (Human), UniProt Q15418); experiment: KINOMEscan; assay type: binding; conditions: 1 uM
RET (V804L) = RET (V804L) (Homo sapiens (Human), UniProt P07949, V804L); experiment: KINOMEscan; assay type: binding; conditions: 1 uM
SRPK1 = SRPK1 (Homo sapiens (Human), UniProt Q96SB4); experiment: KINOMEscan; assay type: binding; conditions: 1 uM
PAK3 = PAK3 (Homo sapiens (Human), UniProt O75914); experiment: KINOMEscan; assay type: binding; conditions: 1 uM
MERTK = MERTK (Homo sapiens (Human), UniProt Q12866); experiment: KINOMEscan; assay type: binding; conditions: 1 uM
MST1 = MST1 (Homo sapiens (Human), UniProt Q13043); experiment: KINOMEscan; assay type: binding; conditions: 1 uM
MST1R = MST1R (Homo sapiens (Human), UniProt Q04912); experiment: KINOMEscan; assay type: binding; conditions: 1 uM
[3] = biological target: ABL1 (F317I)-nonphosphorylated (Homo sapiens (Human), UniProt P00519, F317I); experiment: KINOMEscan; assay type: binding; conditions: 1 uM
JNK1 = JNK1 (Homo sapiens (Human), UniProt P45983); experiment: KINOMEscan; assay type: binding; conditions: 1 uM
PIK3CA (I800L) = PIK3CA (I800L) (Homo sapiens (Human), UniProt P42336, I800L); experiment: KINOMEscan; assay type: binding; conditions: 1 uM
PHKG2 = PHKG2 (Homo sapiens (Human), UniProt P15735); experiment: KINOMEscan; assay type: binding; conditions: 1 uM
CSNK1A1L = CSNK1A1L (Homo sapiens (Human), UniProt Q8N752); experiment: KINOMEscan; assay type: binding; conditions: 1 uM
FLT3 (D835H) = FLT3 (D835H) (Homo sapiens (Human), UniProt P36888, D835H); experiment: KINOMEscan; assay type: binding; conditions: 1 uM
BMPR1B = BMPR1B (Homo sapiens (Human), UniProt O00238); experiment: KINOMEscan; assay type: binding; conditions: 1 uM
SIK3 = SIK3 (Homo sapiens (Human), UniProt Q9Y2K2); experiment: Percent activity against SIK3 at 1 μM; assay type: biochemical
MRCKA = MRCKA (Homo sapiens (Human), UniProt Q5VT25); experiment: KINOMEscan; assay type: binding; conditions: 1 uM
DYRK1A = DYRK1A (Homo sapiens (Human), UniProt Q13627); experiment: KINOMEscan; assay type: binding; conditions: 1 uM
MRCKB = MRCKB (Homo sapiens (Human), UniProt Q9Y5S2); experiment: KINOMEscan; assay type: binding; conditions: 1 uM
[4] = biological target: ABL1 (T315I)-nonphosphorylated (Homo sapiens (Human), UniProt P00519, T315I); experiment: KINOMEscan; assay type: binding; conditions: 1 uM
TGFBR1 = TGFBR1 (Homo sapiens (Human), UniProt P36897); experiment: KINOMEscan; assay type: binding; conditions: 1 uM

Sequence of SIK3 (Q9Y2K2 whole entry): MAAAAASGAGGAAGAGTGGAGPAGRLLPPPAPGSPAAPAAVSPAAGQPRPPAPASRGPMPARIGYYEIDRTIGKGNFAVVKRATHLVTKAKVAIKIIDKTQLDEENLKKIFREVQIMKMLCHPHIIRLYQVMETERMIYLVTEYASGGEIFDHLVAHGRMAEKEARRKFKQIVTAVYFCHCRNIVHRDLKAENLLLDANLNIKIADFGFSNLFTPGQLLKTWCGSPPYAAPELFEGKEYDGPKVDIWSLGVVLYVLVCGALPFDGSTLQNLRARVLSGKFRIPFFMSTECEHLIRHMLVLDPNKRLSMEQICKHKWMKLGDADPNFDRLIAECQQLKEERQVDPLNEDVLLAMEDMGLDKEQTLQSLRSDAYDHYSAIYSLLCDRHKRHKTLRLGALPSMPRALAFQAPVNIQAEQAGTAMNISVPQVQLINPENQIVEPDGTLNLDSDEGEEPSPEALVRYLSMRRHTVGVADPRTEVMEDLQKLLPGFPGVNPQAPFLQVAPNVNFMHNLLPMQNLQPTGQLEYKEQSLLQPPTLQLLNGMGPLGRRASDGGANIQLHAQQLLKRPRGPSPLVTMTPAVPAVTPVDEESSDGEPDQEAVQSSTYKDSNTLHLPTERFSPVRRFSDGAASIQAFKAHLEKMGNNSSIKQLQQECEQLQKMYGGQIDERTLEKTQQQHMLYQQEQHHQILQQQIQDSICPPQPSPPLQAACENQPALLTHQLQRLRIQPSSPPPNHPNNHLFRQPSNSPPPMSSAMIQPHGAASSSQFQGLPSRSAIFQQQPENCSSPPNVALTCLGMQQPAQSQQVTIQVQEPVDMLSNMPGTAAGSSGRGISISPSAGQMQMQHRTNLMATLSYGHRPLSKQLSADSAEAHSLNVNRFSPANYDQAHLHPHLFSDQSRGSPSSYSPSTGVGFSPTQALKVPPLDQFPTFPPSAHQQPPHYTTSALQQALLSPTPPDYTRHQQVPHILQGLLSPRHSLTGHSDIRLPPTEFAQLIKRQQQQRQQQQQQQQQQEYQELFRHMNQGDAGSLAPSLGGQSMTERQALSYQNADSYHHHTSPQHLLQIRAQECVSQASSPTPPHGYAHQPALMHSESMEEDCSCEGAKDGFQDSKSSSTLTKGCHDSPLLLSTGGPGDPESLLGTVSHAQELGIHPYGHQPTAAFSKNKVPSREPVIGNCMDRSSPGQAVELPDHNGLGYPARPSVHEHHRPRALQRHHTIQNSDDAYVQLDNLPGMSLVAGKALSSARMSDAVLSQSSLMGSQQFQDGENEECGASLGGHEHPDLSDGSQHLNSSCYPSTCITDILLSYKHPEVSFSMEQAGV
Sequence of PRKCD (Q05655 whole entry): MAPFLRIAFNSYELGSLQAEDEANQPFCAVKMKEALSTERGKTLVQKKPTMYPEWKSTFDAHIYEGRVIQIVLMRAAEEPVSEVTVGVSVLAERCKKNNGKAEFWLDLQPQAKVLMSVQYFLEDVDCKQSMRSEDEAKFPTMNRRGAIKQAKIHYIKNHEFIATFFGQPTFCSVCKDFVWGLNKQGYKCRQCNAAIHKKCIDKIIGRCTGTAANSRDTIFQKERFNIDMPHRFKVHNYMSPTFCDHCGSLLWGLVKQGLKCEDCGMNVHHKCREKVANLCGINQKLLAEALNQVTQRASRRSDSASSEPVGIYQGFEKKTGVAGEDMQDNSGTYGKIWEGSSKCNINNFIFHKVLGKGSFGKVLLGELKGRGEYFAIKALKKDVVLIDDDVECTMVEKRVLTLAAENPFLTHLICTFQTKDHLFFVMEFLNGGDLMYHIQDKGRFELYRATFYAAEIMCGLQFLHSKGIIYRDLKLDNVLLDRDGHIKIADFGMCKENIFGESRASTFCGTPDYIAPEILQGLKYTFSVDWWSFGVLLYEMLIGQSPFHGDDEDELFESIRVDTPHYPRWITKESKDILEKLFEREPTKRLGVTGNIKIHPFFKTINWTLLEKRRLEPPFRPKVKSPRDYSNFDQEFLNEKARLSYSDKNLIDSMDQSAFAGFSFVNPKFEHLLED
Sequence of CAMKK1 (Q8N5S9 whole entry): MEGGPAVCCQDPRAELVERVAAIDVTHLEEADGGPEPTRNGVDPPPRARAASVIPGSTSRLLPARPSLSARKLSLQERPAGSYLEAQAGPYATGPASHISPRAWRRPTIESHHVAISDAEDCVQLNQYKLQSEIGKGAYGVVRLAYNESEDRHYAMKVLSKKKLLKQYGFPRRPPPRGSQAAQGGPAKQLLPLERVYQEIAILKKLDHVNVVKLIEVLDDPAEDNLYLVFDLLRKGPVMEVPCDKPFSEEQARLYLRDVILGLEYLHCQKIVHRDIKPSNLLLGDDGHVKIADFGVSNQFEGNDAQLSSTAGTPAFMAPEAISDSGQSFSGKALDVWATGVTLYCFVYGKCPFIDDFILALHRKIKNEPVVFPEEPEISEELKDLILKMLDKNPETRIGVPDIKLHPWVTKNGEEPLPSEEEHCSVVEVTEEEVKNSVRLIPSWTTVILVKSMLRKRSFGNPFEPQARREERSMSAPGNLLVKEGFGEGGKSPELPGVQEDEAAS
Sequence of DMPK (Q09013 whole entry): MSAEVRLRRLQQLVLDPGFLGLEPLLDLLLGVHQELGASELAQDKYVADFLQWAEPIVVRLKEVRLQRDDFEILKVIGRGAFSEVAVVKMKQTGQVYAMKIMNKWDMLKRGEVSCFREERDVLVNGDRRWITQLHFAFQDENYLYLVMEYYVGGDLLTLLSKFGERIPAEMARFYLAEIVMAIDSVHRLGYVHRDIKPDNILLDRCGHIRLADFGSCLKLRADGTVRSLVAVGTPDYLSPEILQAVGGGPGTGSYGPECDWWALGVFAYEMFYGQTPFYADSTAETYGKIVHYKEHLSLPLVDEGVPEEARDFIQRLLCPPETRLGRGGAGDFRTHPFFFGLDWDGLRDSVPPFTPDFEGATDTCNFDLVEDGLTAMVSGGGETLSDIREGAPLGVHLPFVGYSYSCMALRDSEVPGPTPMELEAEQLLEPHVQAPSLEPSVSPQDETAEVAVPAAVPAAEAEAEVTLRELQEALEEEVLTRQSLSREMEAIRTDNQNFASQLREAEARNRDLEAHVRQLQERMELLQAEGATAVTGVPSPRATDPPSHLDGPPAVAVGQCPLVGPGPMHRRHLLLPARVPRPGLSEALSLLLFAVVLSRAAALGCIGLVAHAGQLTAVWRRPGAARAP
Sequence of GSK3B (P49841 whole entry): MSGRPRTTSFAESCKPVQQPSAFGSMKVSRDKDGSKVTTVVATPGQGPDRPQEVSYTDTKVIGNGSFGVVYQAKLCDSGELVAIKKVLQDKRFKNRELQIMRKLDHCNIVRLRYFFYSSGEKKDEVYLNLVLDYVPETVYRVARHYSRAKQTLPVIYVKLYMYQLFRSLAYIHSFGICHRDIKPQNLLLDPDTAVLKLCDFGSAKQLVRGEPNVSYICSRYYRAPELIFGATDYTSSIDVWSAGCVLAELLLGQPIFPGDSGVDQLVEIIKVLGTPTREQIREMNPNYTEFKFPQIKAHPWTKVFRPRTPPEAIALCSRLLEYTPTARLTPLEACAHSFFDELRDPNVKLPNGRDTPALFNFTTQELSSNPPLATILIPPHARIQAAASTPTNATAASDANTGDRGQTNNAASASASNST
Sequence of BMPR1B (O00238 14-502): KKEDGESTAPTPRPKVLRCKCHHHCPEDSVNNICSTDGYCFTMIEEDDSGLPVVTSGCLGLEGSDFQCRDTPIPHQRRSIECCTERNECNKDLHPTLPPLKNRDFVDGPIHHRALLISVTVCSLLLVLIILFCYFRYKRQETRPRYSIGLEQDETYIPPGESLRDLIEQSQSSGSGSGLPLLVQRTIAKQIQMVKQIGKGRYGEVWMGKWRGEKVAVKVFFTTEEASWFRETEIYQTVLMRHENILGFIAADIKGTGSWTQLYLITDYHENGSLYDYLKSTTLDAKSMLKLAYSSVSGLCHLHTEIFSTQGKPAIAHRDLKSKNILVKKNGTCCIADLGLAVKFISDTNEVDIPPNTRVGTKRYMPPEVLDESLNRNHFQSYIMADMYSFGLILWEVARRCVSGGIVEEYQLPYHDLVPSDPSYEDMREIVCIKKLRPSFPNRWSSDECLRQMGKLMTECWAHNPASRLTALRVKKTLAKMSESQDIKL
Sequence of MERTK (Q12866 21-999): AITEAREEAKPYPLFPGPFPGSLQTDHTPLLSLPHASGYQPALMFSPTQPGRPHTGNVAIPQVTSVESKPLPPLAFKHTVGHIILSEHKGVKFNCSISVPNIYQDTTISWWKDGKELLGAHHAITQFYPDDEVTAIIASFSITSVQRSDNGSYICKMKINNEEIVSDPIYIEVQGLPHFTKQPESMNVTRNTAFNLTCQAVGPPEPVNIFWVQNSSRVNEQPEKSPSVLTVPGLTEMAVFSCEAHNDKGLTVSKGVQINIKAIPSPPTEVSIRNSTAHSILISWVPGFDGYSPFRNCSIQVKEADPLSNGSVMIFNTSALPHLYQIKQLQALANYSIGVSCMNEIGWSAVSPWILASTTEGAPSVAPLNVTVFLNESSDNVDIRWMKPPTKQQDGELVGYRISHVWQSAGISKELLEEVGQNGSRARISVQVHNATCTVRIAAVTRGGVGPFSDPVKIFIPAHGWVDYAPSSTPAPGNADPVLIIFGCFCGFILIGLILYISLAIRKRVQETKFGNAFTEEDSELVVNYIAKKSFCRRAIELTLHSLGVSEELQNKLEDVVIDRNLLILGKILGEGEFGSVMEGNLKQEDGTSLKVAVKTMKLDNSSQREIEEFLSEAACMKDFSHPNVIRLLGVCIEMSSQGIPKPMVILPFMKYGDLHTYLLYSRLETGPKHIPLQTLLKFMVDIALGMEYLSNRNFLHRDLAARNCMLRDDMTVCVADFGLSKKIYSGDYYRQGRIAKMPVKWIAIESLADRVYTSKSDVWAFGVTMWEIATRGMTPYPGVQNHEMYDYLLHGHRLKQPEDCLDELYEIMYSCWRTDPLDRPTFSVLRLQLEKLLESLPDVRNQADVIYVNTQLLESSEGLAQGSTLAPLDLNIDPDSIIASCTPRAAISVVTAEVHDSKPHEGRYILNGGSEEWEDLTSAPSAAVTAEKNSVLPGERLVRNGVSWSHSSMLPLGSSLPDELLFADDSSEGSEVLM

COc1ccc(N2C(=O)N(c3c(C)cccc3C)Cc3cnc(Nc4ccc(N5CCN(C)CC5)cc4)nc32)c(OC)c1 [HG-11-136-01]
KINOMEscan CAMKK1 (CAMKK1): 94
KINOMEscan TLK2 (TLK2): 92
KINOMEscan AMPK-alpha2 (AMPK-alpha2): 30
KINOMEscan JNK2 (JNK2): 20
KINOMEscan NDR2 (NDR2): 28
KINOMEscan PRKG1 (PRKG1): 100
KINOMEscan MEK6 (MEK6): 30
KINOMEscan GSK3B (GSK3B): 100
KINOMEscan PRKCD (PRKCD): 94
KINOMEscan FLT1 (FLT1): 5.2
KINOMEscan CDK5 (CDK5): 100
KINOMEscan BRAF (V600E) (BRAF (V600E)): 13
KINOMEscan CDC2L1 (CDC2L1): 79
KINOMEscan p38-delta (p38-delta): 100
KINOMEscan ERK8 (ERK8): 88
KINOMEscan SNARK (SNARK): 0.4
KINOMEscan LIMK1 (LIMK1): 0.05
KINOMEscan p38-beta (p38-beta): 3.1
KINOMEscan DMPK (DMPK): 88
KINOMEscan ABL1 (M351T)-phosphorylated [1]: 0.55
KINOMEscan RSK1 (Kin.Dom.2-C-terminal) [2]: 9.7
KINOMEscan RET (V804L) (RET (V804L)): 24
KINOMEscan SRPK1 (SRPK1): 16
KINOMEscan PAK3 (PAK3): 11
KINOMEscan MERTK (MERTK): 5.6
KINOMEscan MST1 (MST1): 2.1
KINOMEscan MST1R (MST1R): 100
KINOMEscan ABL1 (F317I)-nonphosphorylated [3]: 0
KINOMEscan JNK1 (JNK1): 23
KINOMEscan PIK3CA (I800L) (PIK3CA (I800L)): 94
KINOMEscan PHKG2 (PHKG2): 93
KINOMEscan CSNK1A1L (CSNK1A1L): 97
KINOMEscan FLT3 (D835H) (FLT3 (D835H)): 16
KINOMEscan BMPR1B (BMPR1B): 0
Enzyme activity at 1 μM (%) SIK3 (SIK3; 1 μM): 9%
SIK3 % ACTIVITY (SIK3; compound at 1 μM, approximate Km for ATP): 9%
KINOMEscan MRCKA (MRCKA): 99
KINOMEscan DYRK1A (DYRK1A): 30
KINOMEscan MRCKB (MRCKB): 38
KINOMEscan ABL1 (T315I)-nonphosphorylated [4]: 0
KINOMEscan TGFBR1 (TGFBR1): 33
